Measured values published in the supplement of paper PMC11562712.
Where a name gives a salt, the structure may show the parent alone.

Assay: first-order primary biodegradation rate constant k (sorption-corrected, fDis-corrected) (d-1); higher = faster biodegradation
Summary of the method: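 River water and sieved sediment (50 g wet solid L^–1) from segments in Germany, Switzerland, Spain and Greece were spiked with 129 compounds at 1 μg L^–1 each and shaken in the dark at river water temperature (20.5 ± 3.5 °C) for 10 days, in three replicates. After filtration, water-phase subsamples were analysed by Orbitrap tandem mass spectrometry following ultra-high-performance liquid chromatography. First-order k was taken from log peak-area regression, corrected using azide-sterilised sorption controls and divided by the dissolved fraction, excluding invalid fits.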

[1] = river segment: Germany (DE) H_Contam, incubation temperature 24 °C
[2] = river segment: Germany (DE) T_Contam, incubation temperature 24 °C
[3] = river segment: Greece (EL) A_Contam, incubation temperature 19 °C
[4] = river segment: Greece (EL) G_Contam, incubation temperature 19 °C
[5] = river segment: Greece (EL) G_Pris, incubation temperature 19 °C
[6] = river segment: Greece (EL) L_Contam, incubation temperature 19 °C
[7] = river segment: Spain (ES) L_Contam, incubation temperature 24 °C
[8] = river segment: Switzerland (CH) C_Contam, incubation temperature 17 °C
[9] = river segment: Switzerland (CH) U_Pris, incubation temperature 17 °C
[10] = river segment: Germany (DE) T_Pris, incubation temperature 24 °C
[11] = river segment: Spain (ES) B_Contam, incubation temperature 24 °C
[12] = river segment: Spain (ES) C_Contam, incubation temperature 24 °C
[13] = river segment: Switzerland (CH) U_Contam, incubation temperature 17 °C
[14] = river segment: Spain (ES) F_Pris_Salt, incubation temperature 24 °C
[15] = river segment: Switzerland (CH) R_Contam, incubation temperature 17 °C

Row | Compound | first-order primary biodegradation rate constant k [1] | first-order primary biodegradation rate constant k [2] | first-order primary biodegradation rate constant k [3] | first-order primary biodegradation rate constant k [4] | first-order primary biodegradation rate constant k [5] | first-order primary biodegradation rate constant k [6] | first-order primary biodegradation rate constant k [7] | first-order primary biodegradation rate constant k [8] | first-order primary biodegradation rate constant k [9] | first-order primary biodegradation rate constant k [10] | first-order primary biodegradation rate constant k [11] | first-order primary biodegradation rate constant k [12] | first-order primary biodegradation rate constant k [13] | first-order primary biodegradation rate constant k [14] | first-order primary biodegradation rate constant k [15]
1 | COc1ccc(NS(=O)(=O)c2ccc(N)cc2)nn1 [Sulfamethoxypyridazine] | 0.0977 | 0.382 | 0.161 | 0.396 | 0.441 | 0.195 | 1.07 | 0.0233 | 0.0441 | – | – | – | – | – | –
2 | CCNc1nc(Cl)nc(NC(C)C)n1 [Atrazine] | 0.0725 | 0.136 | 0.0312 | – | – | – | 0.451 | 0.0513 | 0.0218 | 0.025 | 0.103 | 0.0247 | 0.0313 | – | –
3 | NC(=O)N1c2ccccc2C=Cc2ccccc21 [Carbamazepine] | – | 0.0377 | 0.00808 | – | – | 0.00883 | 0.711 | – | – | – | – | 0.00861 | – | – | –
4 | COC(=O)c1ccc(O)cc1 [Methylparaben] | 0.119 | 0.0815 | 0.106 | 0.0602 | – | 0.211 | – | 0.175 | 0.0832 | 0.1 | – | 0.151 | – | 4.7 | –
5 | CC1(C)C[C@@H]1C(=O)N/C(=C\CCCCSC[C@H](N)C(=O)O)C(=O)O [Cilastatin] | 5.75 | 5.89 | 7.64 | 5.93 | 22 | 5.07 | 12.5 | 7.85 | 10.7 | 4.29 | 10.1 | 7.57 | 7.54 | 8.78 | 7.32
6 | CCOC(=O)CC(O)(CC(=O)OCC)C(=O)OCC [Triethyl citrate] | – | 0.275 | – | – | – | – | 0.339 | 0.00672 | 0.0638 | 0.0369 | – | – | 0.127 | – | 0.0597
7 | CO[C@@H]1[C@@H](OC(N)=O)[C@@H](O)[C@H](Oc2ccc3c(O)c(NC(=O)c4ccc(O)c(CC=C(C)C)c4)c(=O)oc3c2C)OC1(C)C [Novobiocin] | – | – | – | 0.108 | – | 7.88 | – | – | – | 0.212 | – | – | – | 0.145 | –
8 | NC(=O)c1cn(Cc2c(F)cccc2F)nn1 [Rufinamide] | 0.387 | 1.31 | 1.16 | 0.652 | 2.31 | 1.2 | 0.565 | 0.44 | 1.15 | 0.365 | 0.38 | 0.286 | 0.383 | 0.221 | 0.57
9 | COc1cc(Cc2cnc(N)nc2N)cc(OC)c1OC [Trimethoprim] | 0.173 | – | 0.431 | 0.993 | 0.704 | 1.57 | 0.758 | 1.11 | 2.52 | 0.612 | 0.192 | 0.383 | 2.23 | 0.726 | 1.65
10 | Cc1ccc2n[nH]nc2c1 [5-Methylbenzotriazole] | 0.0462 | 0.0831 | 0.327 | – | 0.771 | 0.219 | 0.219 | 0.0095 | 0.282 | 0.00627 | 0.0714 | 0.102 | 0.139 | – | 0.134
11 | COc1cccc(C2(O)CCCCC2CN(C)C)c1 (configuration not stated) [Tramadol] | 0.0149 | 0.058 | 0.0025 | – | 0.0141 | 0.0437 | 0.00992 | – | 0.0152 | 0.00925 | 0.00653 | 0.00694 | 0.0131 | – | 0.00497
12 | CN(Cc1cnc2nc(N)nc(N)c2n1)c1ccc(C(=O)N[C@@H](CCC(=O)O)C(=O)O)cc1 [Methotrexate] | 3.99 | – | – | – | – | 6.29 | – | – | – | 8.59 | – | – | – | 6.23 | 18
13 | O=C1Nc2ccc(Cl)cc2C(c2ccccc2)=NC1O (configuration not stated) [Oxazepam] | 0.0405 | 0.0412 | – | – | – | 0.027 | 0.0149 | – | 0.00813 | – | – | 0.124 | 0.0242 | – | –
14 | Cc1cc(O)cc(C)c1Cl [4-Chloro-3,5-dimethylphenol] | 1.4 | 2.27 | 2.03 | 0.169 | 3.52 | 3.5 | 4.19 | – | 4.31 | 1.68 | – | 2.41 | – | 0.228 | –
